Square brackets hold non-standard residues; d marks the D form. Peptide text beside a SMILES is read from it.

This assay addresses SARS-CoV-2-PLpro enzyme (Severe acute respiratory syndrome coronavirus 2, UniProt P0DTD1). The experiment in a line: SARS-CoV-2-PLpro enzyme inhibition assay. The following applies: read-out: Percent inhibition. It counts as biochemical. The procedure: The inhibition assay was carried out as follows. 1 μM SARS-CoV-2-PLpro enzyme was incubated with 25 μM Arg-Leu-Arg-Gly-Gly-AMC substrate and 100 μM of the inhibitor peptide tested, in reaction buffer (100 mM NaCl, 50 mM HEPES [pH=7.5], 0.01 mg/mL bovine serum albumin, and 5 mM DTT) to a final volume of 50 μL. A control reaction with no inhibitory peptide was included and serves as the basis for “no inhibition”. Each reaction was carried in triplicate. The percentage inhibition was calculated by […].
Regarding `CC(C)C[C@@H](NC(=O)[C@@H](N)CCCNC(=N)N)C(=O)N[C@@H](CCCNC(=N)N)C(=O)NCC(=O)NCC(=O)O` [Arg - Leu - Arg - Gly - Gly], the inhibition at 100 µM was 10 to 15%. For the compound `CC(C)C[C@@H](NC(=O)[C@@H](N)CO)C(=O)N[C@@H](CCCCN)C(=O)NCC(=O)NCC(=O)O` [Ser - Leu - Lys - Gly - Gly] (H-S[dL]KGG-OH), the inhibition at 100 µM is 0%. For `CC(C)C[C@@H](NC(=O)[C@@H](N)CCC(=O)O)C(=O)N[C@@H](CC(N)=O)C(=O)NCC(=O)NCC(=O)O` [Glu - Leu - Asn - Gly - Gly] (H-E[dL]NGG-OH), the inhibition at 100 µM came to 0%. Under `CC(C)C[C@@H](NC(=O)[C@@H](N)CCCNC(=N)N)C(=O)N[C@@H](CCCCN)C(=O)NCC(=O)NCC(=O)O` [Arg - Leu - Lys - Gly - Gly] (H-R[dL]KGG-OH) stands 5 to 10%.

The inhibition is the share of the control response that was lost under treatment.

The values above are taken from patent publication US12624066B2, “Inhibitors of coronavirus protease” (SUNSHINE BIOPHARMA INC., priority 2020, dated 2026).
